According to US5171573A, “4^G -alpha-D-glucopyranosyl rutin, and its preparation and uses” (Kabushiki Kaisha Hayashibara Seibutsu Kagaku Kenkyujo, priority 1989, dated 1992):
≈ marks a conversion by molar mass, not a printed value.

Columns and labels:
[1] = system: alpha-glucosidase derived from pig liver; experiment: Hydrolysis using an alpha-glucosidase derived from pig liver; assay type: biochemical
Description: ii) Hydrolysis using an alpha-glucosidase derived from pig liver yields 1 mole of glucose per mole of rutin.

[2] = Solubility in solvents / water-solubility; assay type: physicochemical
Protocol: Soluble in methanol and ethanol. […] One ml water dissolves about 4.3 g of the present substance at 25° C. Only 1 g rutin (control) dissolves in 8 liters of water.

[3] = Stability in aqueous solution; assay type: physicochemical; conditions: pH 3-7, aqueous solution
[4] = Antioxidant activity on powdered peanut butter (peroxide value during standing at 35° C.)
Protocol: 4^G -Alpha-D-glucopyranosyl rutin was tested for antioxidant activity on powdered peanut butter which is used an example of fatty food substances highly susceptive to oxidation. […] The mixture was placed in a tray, sealed, solidified by allowing it to stand at 35° C. for 1 day, and prepared into a powder which was then placed in aluminum cups and allowed to stand in a 35° C. incubator without sealing. During the standing, the contents in the aluminum cups were periodically checked for their peroxide value. […] As the control, a group with no antioxidant was tested similarly as above.

[5] = Physical properties (hygroscopicity, acidity in aqueous solution); assay type: physicochemical
[6] = system: 7-week old dd mice; experiment: Acute toxicity, oral, 7-week old dd mice
[7] = ambient temperature, prior art; cited from earlier work

## C[C@@H]1O[C@@H](OC[C@H]2O[C@@H](Oc3c(-c4ccc(O)c(O)c4)oc4cc(O)cc(O)c4c3=O)[C@H](O)[C@@H](O)[C@@H]2O[C@H]2O[C@H](CO)[C@@H](O)[C@H](O)[C@H]2O)[C@H](O)[C@H](O)[C@H]1O [4^G -alpha-D-glucopyranosyl rutin]
[1]
  glucose yielded on enzymatic hydrolysis: 1 mole of glucose per mole of rutin
[2]
  Solubility in solvent: 0.1N hydrochloric acid: Readily soluble
  Solubility in solvent: 0.1N sodium hydroxide: Readily soluble
  Solubility in solvent: acetic acid: Readily soluble
  Solubility in solvent: chloroform: Hardly soluble
  Solubility in solvent: ethanol: Soluble
  Solubility in solvent: ethyl acetate: Hardly soluble
  Solubility in solvent: methanol: Soluble
  Solubility in solvent: water: Readily soluble
  solubility improved as compared to that of rutin: about thirty thousand
[2]; water
  solubility: ~4300 mg/mL (≈ 5570 mM)
[3]
  Stability in aqueous solution: Superiorily stable
[4]; 0 days
  peroxide value: 1.78 meq/kg
[4]; 8 days
  peroxide value: 5.53 meq/kg
[4]; 27 days
  peroxide value: 14.6 meq/kg
[4]; 42 days
  peroxide value: 23.4 meq/kg
[4]; 55 days
  peroxide value: 32.5 meq/kg
[5]; aqueous solution
  acidity in aqueous solution: Neutral or slightly acidic
[5]; powder, purity about 99.8%
  hygroscopicity / deliquescence: Non-hygroscopic and non-deliquescent
[6]; 7-week old dd mice, powder of Example A-3
  acute toxicity, in words: extremely low in toxicity
[6]; 7-week old dd mice, powder of Example A-3, higher dose was difficult
  acute toxicity: dose up to which no mouse died: > 5 g
[6]; dd mice, high-purity powder of Example A-4, same result as Example A-3 powder
  acute toxicity, in words: extremely low

## C[C@@H]1O[C@@H](OC[C@H]2O[C@@H](Oc3c(-c4ccc(O)c(O)c4)oc4cc(O)cc(O)c4c3=O)[C@H](O)[C@@H](O)[C@@H]2O)[C@H](O)[C@H](O)[C@H]1O [rutin]
[2]; 8 liters of water (control)
  Solubility in 8 liters of water: 1 g
[7]
  water-solubility: about 0.01 w/v %
